In patent US20240190880A1 (THE REGENTS OF THE UNIVERSITY OF MICHIGAN, priority 2021, published 2024):
Read-outs that look alike come from different tables or passages of the source.

Target: T1, ER (Homo sapiens, UniProt P03372)
T1 construct: host or cells: T47D and MCF7 human breast cancer cells
T1 sequence (P03372 1-595): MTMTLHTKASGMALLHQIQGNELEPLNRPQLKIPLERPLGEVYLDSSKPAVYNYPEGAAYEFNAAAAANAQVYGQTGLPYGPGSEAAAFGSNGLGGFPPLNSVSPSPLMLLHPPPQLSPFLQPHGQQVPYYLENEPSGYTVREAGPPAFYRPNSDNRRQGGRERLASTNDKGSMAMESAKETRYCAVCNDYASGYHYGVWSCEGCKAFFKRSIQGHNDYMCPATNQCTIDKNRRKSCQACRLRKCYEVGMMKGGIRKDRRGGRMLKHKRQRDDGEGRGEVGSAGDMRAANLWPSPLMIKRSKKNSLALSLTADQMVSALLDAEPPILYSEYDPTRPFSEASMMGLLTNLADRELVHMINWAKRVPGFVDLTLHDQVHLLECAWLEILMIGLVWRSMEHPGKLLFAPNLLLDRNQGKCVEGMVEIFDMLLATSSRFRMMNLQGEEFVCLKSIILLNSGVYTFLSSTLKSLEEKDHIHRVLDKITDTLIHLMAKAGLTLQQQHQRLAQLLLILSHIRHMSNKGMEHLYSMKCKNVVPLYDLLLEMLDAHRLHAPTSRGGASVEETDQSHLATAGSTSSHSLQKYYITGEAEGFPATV
Test: ER degradation activity, in-cell western blot analysis in T47D cells
Format: cell-based
Outline: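 In-cell western, T47D; compounds 16 h, 0.5% DMSO final; anti-rabbit-680/anti-mouse-800 secondaries, 1 h RT, dark; read on CLX imager. ER % vs untreated/DMSO wells (100%).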

[1] = compounds 16 hours, Table A does not say whether T47D or MCF7, read-out: Potency (DC50)
[2] = 16 hours, Table A does not say which cell line (T47D or MCF7), read-out: Potency (DC50)

| SMILES | DC50 [1] [nM] | DC50 [2] [nM] |
| --- | --- | --- |
| C[C@@H]1Cc2cc(O)ccc2C(c2ccc(C3CCC4(CC3)CCN(C(=O)CN3Cc5cc6c(cc5C3)C(=O)N(C3CCC(=O)NC3=O)C6=O)CC4)cc2)N1CC(F)F (stereo partly drawn) [E 450, 6-(2-(9-(4-((3R)-2-(2,2-difluoroethyl)-6-hydroxy-3-methyl-1,2,3,4-tetrahydroisoquinolin-1-yl)phenyl)-3-azaspiro[5.5]undecan-3-yl)-2-oxoethyl)-2-(2,6-dioxopiperidin-3-yl)-6,7-dihydropyrrolo[3,4-f]isoindole-1,3(2H,5H)-dione] | 10 to 100 | – |
| O=C1CCC(N2C(=O)c3cc4c(cc3C2=O)CN(CC(=O)N2CCC3(CC2)CCN(c2ccc([C@@H]5c6ccc7[nH]ncc7c6CC[C@@H]5c5ccccc5)cc2)CC3)C4)C(=O)N1 (stereo partly drawn) [E 423, 2-(2,6-dioxopiperidin-3-yl)-6-(2-oxo-2-(9-(4-((6R,7S)-7-phenyl-6,7,8,9-tetrahydro-3H-benzo[e]indazol-6-yl)phenyl)-3,9-diazaspiro[5.5]undecan-3-yl)ethyl)-6,7-dihydropyrrolo[3,4-f]isoindole-1,3(2H,5H)-dione] | 10 to 100 | – |
| C[C@@H]1Cc2c([nH]c3ccccc23)[C@@H](c2c(F)cc(N3CC4(CCN(C(=O)CN5Cc6cc7c(cc6C5)C(=O)N(C5CCC(=O)NC5=O)C7)C4)C3)cc2F)N1CC(F)F (stereo partly drawn) [E 66, 3-(6-(2-(2-(4-((1R,3R)-2-(2,2-difluoroethyl)-3-methyl-2,3,4,9-tetrahydro-1H-pyrido[3,4-b]indol-1-yl)-3,5-difluorophenyl)-2,6-diazaspiro[3.4]octan-6-yl)-2-oxoethyl)-1-oxo-3,5,6,7-tetrahydropyrrolo[3,4-f]isoindol-2(1H)-yl)piperidine-2,6-dione] | – | < 10 |
| C[C@@H]1Cc2c(ccc3[nH]ncc23)[C@@H](c2c(F)cc(NC3CN(C(=O)[C@H]4CC[C@@H](N5Cc6cc7c(cc6C5)C(=O)N(C5CCC(=O)NC5=O)C7=O)CC4)C3)cc2F)N1CC(F)F (some centres unmarked) [E 424] | 10 to 100 | – |
| C[C@@H]1Cc2c([nH]c3ccccc23)[C@@H](c2c(F)cc(N3CCC(CN4CC5(CC(N6Cc7cc8c(cc7C6)C(=O)N(C6CCC(=O)NC6=O)C8=O)C5)C4)CC3)cc2F)N1CC(F)F (stereo partly drawn) [E 131, 6-(2-((1-(4-((1R,3R)-2-(2,2-difluoroethyl)-3-methyl-2,3,4,9-tetrahydro-1H-pyrido[3,4-b]indol-1-yl)-3,5-difluorophenyl)piperidin-4-yl)methyl)-2-azaspiro[3.3]heptan-6-yl)-2-(2,6-dioxopiperidin-3-yl)-6,7-dihydropyrrolo[3,4-f]isoindole-1,3(2H,5H)-dione] | – | < 10 |
| C[C@@H]1Cc2cc(O)ccc2[C@@H](c2c(F)cc(N3CCC4(CC3)CN(CC(=O)N3Cc5cc6c(cc5C3)C(=O)N(C3CCC(=O)NC3=O)C6)C4)cc2F)N1CC(F)F (some centres unmarked) [E 39] | – | < 10 |
| C[C@@H]1Cc2c([nH]c3ccccc23)[C@@H](c2cnc(N3CCC(C(=O)N4CCC(N5Cc6cc7c(cc6C5)C(=O)N(C5CCC(=O)NC5=O)C7=O)CC4)CC3)nc2)N1CC(F)(F)F (stereo partly drawn) [E 257, 2-(2,6-dioxopiperidin-3-yl)-6-(1-(1-(5-((1R,3R)-3-methyl-2-(2,2,2-trifluoroethyl)-2,3,4,9-tetrahydro-1H-pyrido[3,4-b]indol-1-yl)pyrimidin-2-yl)piperidine-4-carbonyl)piperidin-4-yl)-6,7-dihydropyrrolo[3,4-f]isoindole-1,3(2H,5H)-dione] | – | < 10 |
| C[C@@H]1Cc2c([nH]c3ccccc23)[C@@H](c2ccc(N3CCC(C(=O)N4CCC(N5Cc6cc7c(cc6C5)C(=O)N(C5CCC(=O)NC5=O)C7=O)CC4)CC3)cc2F)N1CC(F)F (stereo partly drawn) [E 302, 6-(1-(1-(4-((1R,3R)-2-(2,2-difluoroethyl)-3-methyl-2,3,4,9-tetrahydro-1H-pyrido[3,4-b]indol-1-yl)-3-fluorophenyl)piperidine-4-carbonyl)piperidin-4-yl)-2-(2,6-dioxopiperidin-3-yl)-6,7-dihydropyrrolo[3,4-f]isoindole-1,3(2H,5H)-dione] | – | < 10 |
| C[C@@H]1Cc2cc(O)ccc2[C@@H](c2c(F)cc(N3CCC(N4CCC(C(=O)N5Cc6cc7c(cc6C5)C(=O)N(C5CCC(=O)NC5=O)C7=O)CC4)CC3)cc2F)N1CC(C)(F)F (stereo partly drawn) [E 29, 6-(1′-(4-((1S,3R)-2-(2,2-difluoropropyl)-6-hydroxy-3-methyl-1,2,3,4-tetrahydroisoquinolin-1-yl)-3,5-difluorophenyl)-[1,4′-bipiperidine]-4-carbonyl)-2-(2,6-dioxopiperidin-3-yl)-6,7-dihydropyrrolo[3,4-f]isoindole-1,3(2H,5H)-dione] | – | > 100 |
| COc1nc(C2CCC(C(=O)N3CCC(N4Cc5cc6c(cc5C4)C(=O)N(C4CCC(=O)NC4=O)C6=O)CC3)CC2)ccc1[C@@H]1c2[nH]c3ccccc3c2C[C@@H](C)N1CC(F)F (stereo partly drawn) [E 402, 6-(1-(4-(5-((1R,3R)-2-(2,2-difluoroethyl)-3-methyl-2,3,4,9-tetrahydro-1H-pyrido[3,4-b]indol-1-yl)-6-methoxypyridin-2-yl)cyclohexane-1-carbonyl)piperidin-4-yl)-2-(2,6-dioxopiperidin-3-yl)-6,7-dihydropyrrolo[3,4-f]isoindole-1,3(2H,5H)-dione] | > 100 | – |
| O=C1CCC(N2C(=O)c3cc4c(cc3C2=O)CN(C2CN(CC3CCN(c5ccc([C@@H]6c7ccc(O)cc7CC[C@@H]6c6ccccc6)cc5)CC3)C2)C4)C(=O)N1 (stereo partly drawn) [E 272, 2-(2,6-dioxopiperidin-3-yl)-6-(1-((1-(4-((1R,2S)-6-hydroxy-2-phenyl-1,2,3,4-tetrahydronaphthalen-1-yl)phenyl)piperidin-4-yl)methyl)azetidin-3-yl)-6,7-dihydropyrrolo[3,4-f]isoindole-1,3(2H,5H)-dione] | – | > 100 |
| C[C@@H]1Cc2c([nH]c3ccccc23)[C@@H](c2c(F)cc(N3CCCC4(CCN(C(=O)CN5Cc6cc7c(cc6C5)C(=O)N(C5CCC(=O)NC5=O)C7=O)C4)C3)cc2F)N1CC(F)F (stereo partly drawn) [E 78, 6-(2-(7-(4-((1R,3R)-2-(2,2-difluoroethyl)-3-methyl-2,3,4,9-tetrahydro-1H-pyrido[3,4-b]indol-1-yl)-3,5-difluorophenyl)-2,7-diazaspiro[4.5]decan-2-yl)-2-oxoethyl)-2-(2,6-dioxopiperidin-3-yl)-6,7-dihydropyrrolo[3,4-f]isoindole-1,3(2H,5H)-dione] | – | > 100 |
| O=C1CCC(N2C(=O)c3cc4c(cc3C2=O)CN(CC(=O)N2CCC3(CC2)CCN(c2ccc([C@@H]5c6ccc(-c7cn[nH]c7)cc6CC[C@@H]5c5ccccc5)cc2)CC3)C4)C(=O)N1 (stereo partly drawn) [E 510, 2-(2,6-dioxopiperidin-3-yl)-6-(2-oxo-2-(9-(4-((1R,2S)-2-phenyl-6-(1H-pyrazol-4-yl)-1,2,3,4-tetrahydronaphthalen-1-yl)phenyl)-3,9-diazaspiro[5.5]undecan-3-yl)ethyl)-6,7-dihydropyrrolo[3,4-f]isoindole-1,3(2H,5H)-dione] | > 100 | – |
| O=C1CCC(N2C(=O)c3cc4c(cc3C2=O)CN(CC(=O)N2CCC3(CC2)CCN(C(=O)c2ccc([C@@H]5c6ccc(O)cc6CC[C@@H]5c5ccccc5)cc2)CC3)C4)C(=O)N1 (stereo partly drawn) [E 495, 2-(2,6-dioxopiperidin-3-yl)-6-(2-(9-(4-((1R,2S)-6-hydroxy-2-phenyl-1,2,3,4-tetrahydronaphthalen-1-yl)benzoyl)-3,9-diazaspiro[5.5]undecan-3-yl)-2-oxoethyl)-6,7-dihydropyrrolo[3,4-f]isoindole-1,3(2H,5H)-dione] | > 100 | – |
| O=C1CCC(N2C(=O)c3cc4c(cc3C2=O)CN(CC(=O)N2CC3(C2)CN(c2ccc([C@@H]5c6ccc(O)cc6CC[C@@H]5c5ccc(F)cc5)cc2)C3)C4)C(=O)N1 (mixture of isomers) [E 18, Rac-2-(2,6-dioxopiperidin-3-yl)-6-(2-(6-(4-((1R,2S)-2-(4-fluorophenyl)-6-hydroxy-1,2,3,4-tetrahydronaphthalen-1-yl)phenyl)-2,6-diazaspiro[3.3]heptan-2-yl)-2-oxoethyl)-6,7-dihydropyrrolo[3,4-f]isoindole-1,3(2H,5H)-dione] | – | 10 to 100 |
| O=C1CCC(N2C(=O)c3cc4c(cc3C2=O)CN(CC2CCC(NC3CN(c5ccc([C@@H]6c7ccc(O)cc7CC[C@@H]6c6ccccc6)cc5)C3)CC2)C4)C(=O)N1 (stereo partly drawn) [E 337, 2-(2,6-dioxopiperidin-3-yl)-6-((4-((1-(4-((1R,2S)-6-hydroxy-2-phenyl-1,2,3,4-tetrahydronaphthalen-1-yl)phenyl)azetidin-3-yl)amino)cyclohexyl)methyl)-6,7-dihydropyrrolo[3,4-f]isoindole-1,3(2H,5H)-dione] | – | > 100 |
| C[C@@H]1Cc2cc(O)ccc2[C@@H](c2c(F)cc(N3CC4(CCN(C(=O)CN5Cc6cc7c(cc6C5)C(=O)N(C5CCC(=O)NC5=O)C7)CC4)C3)cc2F)N1CC(C)(F)F (stereo partly drawn) [E 27, 3-(6-(2-(2-(4-((1S,3R)-2-(2,2-difluoropropyl)-6-hydroxy-3-methyl-1,2,3,4-tetrahydroisoquinolin-1-yl)-3,5-difluorophenyl)-2,7-diazaspiro[3.5]nonan-7-yl)-2-oxoethyl)-1-oxo-3,5,6,7-tetrahydropyrrolo[3,4-f]isoindol-2(1H)-yl)piperidine-2,6-dione] | – | > 100 |
